Measurements as given in PMC5693660 (Amino acids, 2017).

Molecular target: T1, deoxyhypusine synthase (DHS) (Homo sapiens, UniProt P49366)
T1 sequence (P49366 1-369): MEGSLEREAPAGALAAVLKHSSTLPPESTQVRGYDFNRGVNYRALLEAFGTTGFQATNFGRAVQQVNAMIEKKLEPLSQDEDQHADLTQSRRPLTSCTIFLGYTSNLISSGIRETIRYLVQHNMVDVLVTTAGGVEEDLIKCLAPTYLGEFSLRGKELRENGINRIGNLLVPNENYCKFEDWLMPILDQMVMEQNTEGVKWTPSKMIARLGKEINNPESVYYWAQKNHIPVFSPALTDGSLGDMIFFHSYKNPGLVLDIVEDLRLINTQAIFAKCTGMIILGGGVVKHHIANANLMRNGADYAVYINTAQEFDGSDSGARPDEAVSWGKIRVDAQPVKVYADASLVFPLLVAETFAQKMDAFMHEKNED
Type: biochemical

IC50: < 1000 nM
SMILES: N=C(N)NCCCCCCCN [GC7]
